In patent publication US12365692B2, “6-hydroxy-8-oxatricyclo[3.2.1.02,4]octane-2-carboxamide derivatives for inducing chondrogenesis for treating joint damage” (NOVARTIS AG, priority 2018, dated 2025):

Test system: ALP in NHAC (normal human articular chondrocytes)
Experiment: Alkaline Phosphatase (ALP) activity assay: ALP staining and quantitation in NHACs (prevention of chondrocyte hypertrophy)
Type: cell-based
Conditions: Chondrocyte, 288 h, human IL-1 beta 10 ng/mL, 12 days; for IC50: Fast Blue RR staining, high content imaging; for Emax: read-out: ALP in NHAC (% Efficacy)
Protocol: The compounds of the present invention were evaluated in the Alkaline Phosphatase (ALP) activity assay to determine the ability of the compounds to prevent chondrocyte hypertrophy in normal human articular chondrocytes (NHACs).
Normal human articular chondrocytes (NHACs) were purchased from PromoCell (Heidelberg, Germany) and grown in Chondrocyte Growth Medium (CGM; Lonza, Walkersville, Md.).
NHACs were expanded in Chondrocyte Growth Medium (CGM) from Lonza until they reached a 60-80% confluency. To initiate differentiation, 7,500 cells were plated/well with indicated test compound dose in 384-well Cell Carrier Ultra plates (Perkin Elmer) with DMEM (SH30022—HyClone) containing 10% FBS (35-015-CV—Corning), 1% Pen/Strep antibiotics (SV30010—HyClone), and 1% Normocin (50 mg/mL—InvivoGen). Cells with test compounds were incubated at 37° C., 5% CO2 for 5 hours and then added human IL-1 beta (AF-200-1B—Peprotech) to each well at a final concentration of 10 ng/mL and incubated at 37° C., 5% CO2 for 12 days.
To detect the presence of hypertrophic cells, NHACs were fixed with 4% paraformaldehyde and Hoechst 33342 (Invitrogen) dye for 30 minutes, rinsed in PBS, then stained with Fast Blue RR Salt (F0500—Sigma) with Naphthol AS-MX Phosphate Alkaline Solution, 0.25% (855—Sigma-Aldrich).
The staining was imaged by fluoresecent microscopy, using the 561 nm wavelength, and/or quantified by high content imaging with the ImageXpress Confocal (Molecular Devices, Sunnyvale, CA). Data analyses were performed with a customized multiwavelength cell-scoring application The activity of the compounds of the present invention in the ALP assay is summarized in Table 2.

SMILES	IC50	Emax
O=C(Nc1cc(C(F)(F)F)ccn1)[C@]12C[C@@]1(c1ccnc(F)c1)[C@H]1O[C@@H]2C[C@@H]1O (racemic) [Example 1, rac-(1R,2R,4S,5R,6S)-4-(2-fluoropyridin-4-yl)-6-hydroxy-N-(4-(trifluoromethyl)pyridin-2-yl)-8-oxatricyclo[3.2.1.02,4]octane-2-carboxamide]	> 30 µM	28%
O=C(Nc1ccc(C(F)(F)F)c(F)c1)[C@]12C[C@@]1(c1ccnc(F)c1)[C@H]1O[C@@H]2C[C@@H]1O (racemic) [Example 2, rac-(1R,2R,4S,5R,6S)-N-(3-fluoro-4-(trifluoromethyl)phenyl)-4-(2-fluoropyridin-4-yl)-6-hydroxy-8-oxatricyclo[3.2.1.02,4]octane-2-carboxamide]	> 30 µM	28%
O=C(Nc1ccc(C(F)(F)F)c(Cl)c1)[C@]12C[C@@]1(c1ccnc(F)c1)[C@H]1O[C@@H]2C[C@@H]1O (racemic) [Example 3, rac-(1R,2R,4S,5R,6S)—N-(3-chloro-4-(trifluoromethyl)phenyl)-4-(2-fluoropyridin-4-yl)-6-hydroxy-8-oxatricyclo[3.2.1.02,4]octane-2-carboxamide]	12 µM	71%
O=C(Nc1cc(C(F)(F)F)cc(Cl)n1)[C@]12C[C@@]1(c1ccnc(F)c1)[C@H]1O[C@@H]2C[C@@H]1O (racemic) [Example 4, rac-(1R,2R,4S,5R,6S)—N-(6-chloro-4-(trifluoromethyl)pyridin-2-yl)-4-(2-fluoropyridin-4-yl)-6-hydroxy-8-oxatricyclo[3.2.1.02,4]octane-2-carboxamide]	> 30 µM	0%
O=C(Nc1cc(C(F)(F)F)c(Cl)cn1)[C@]12C[C@@]1(c1ccnc(F)c1)[C@H]1O[C@@H]2C[C@@H]1O (racemic) [Example 5, rac-(1R,2R,4S,5R,6S)-N-(5-chloro-4-(trifluoromethyl)pyridin-2-yl)-4-(2-fluoropyridin-4-yl)-6-hydroxy-8-oxatricyclo[3.2.1.02,4]octane-2-carboxamide]	> 30 µM	38%
O=C(Nc1cc(C(F)(F)F)cc(C2CC2)n1)[C@]12C[C@@]1(c1ccnc(F)c1)[C@H]1O[C@@H]2C[C@@H]1O (racemic) [Example 6, rac-(1R,2R,4S,5R,6S)—N-(6-cyclopropyl-4-(trifluoromethyl)pyridin-2-yl)-4-(2-fluoropyridin-4-yl)-6-hydroxy-8-oxatricyclo[3.2.1.02,4]octane-2-carboxamide]	> 30 µM	9%
Cc1cc(C(F)(F)F)cc(NC(=O)[C@]23C[C@@]2(c2ccnc(F)c2)[C@H]2O[C@@H]3C[C@@H]2O)n1 (racemic) [Example 7, rac-(1R,2R,4S,5R,6S)-4-(2-fluoropyridin-4-yl)-6-hydroxy-N-(6-methyl-4-(trifluoromethyl)pyridin-2-yl)-8-oxatricyclo[3.2.1.02,4]octane-2-carboxamide]	> 30 µM	0%
CCOc1cc(C(F)(F)F)cc(NC(=O)[C@]23C[C@@]2(c2ccnc(F)c2)[C@H]2O[C@@H]3C[C@@H]2O)n1 (racemic) [Example 8, rac-(1R,2R,4S,5R,6S)—N-(6-ethoxy-4-(trifluoromethyl)pyridin-2-yl)-4-(2-fluoropyridin-4-yl)-6-hydroxy-8-oxatricyclo[3.2.1.02,4]octane-2-carboxamide]	> 30 µM	26%
O=C(Nc1cccc(C(F)(F)F)c1)[C@]12C[C@@]1(c1ccnc(F)c1)[C@H]1O[C@@H]2C[C@@H]1O (racemic) [Example 9, rac-(1R,2R,4S,5R,6S)-4-(2-fluoropyridin-4-yl)-6-hydroxy-N-(3-(trifluoromethyl)phenyl)-8-oxatricyclo[3.2.1.02,4]octane-2-carboxamide]	> 30 µM	32%
Cc1c(NC(=O)[C@]23C[C@@]2(c2ccnc(F)c2)[C@H]2O[C@@H]3C[C@@H]2O)cccc1C(F)(F)F (racemic) [Example 10, rac-(1R,2R,4S,5R,6S)-4-(2-fluoropyridin-4-yl)-6-hydroxy-N-(2-methyl-3-(trifluoromethyl)phenyl)-8-oxatricyclo[3.2.1.02,4]octane-2-carboxamide]	> 30 µM	6%
Cc1ccc(NC(=O)[C@]23C[C@@]2(c2ccnc(F)c2)[C@H]2O[C@@H]3C[C@@H]2O)cc1C(F)(F)F (racemic) [Example 11, rac-(1R,2R,4S,5R,6S)-4-(2-fluoropyridin-4-yl)-6-hydroxy-N-(4-methyl-3-(trifluoromethyl)phenyl)-8-oxatricyclo[3.2.1.02,4]octane-2-carboxamide]	> 30 µM	0%
Cc1cc(NC(=O)[C@]23C[C@@]2(c2ccnc(F)c2)[C@H]2O[C@@H]3C[C@@H]2O)cc(C(F)(F)F)c1 (racemic) [Example 12, rac-(1R,2R,4S,5R,6S)-4-(2-fluoropyridin-4-yl)-6-hydroxy-N-(3-methyl-5-(trifluoromethyl)phenyl)-8-oxatricyclo[3.2.1.02,4]octane-2-carboxamide]	> 30 µM	21%
Cc1ccc(C(F)(F)F)cc1NC(=O)[C@]12C[C@@]1(c1ccnc(F)c1)[C@H]1O[C@@H]2C[C@@H]1O (racemic) [Example 13, rac-(1R,2R,4S,5R,6S)-4-(2-fluoropyridin-4-yl)-6-hydroxy-N-(2-methyl-5-(trifluoromethyl)phenyl)-8-oxatricyclo[3.2.1.02,4]octane-2-carboxamide]	> 30 µM	40%
O=C(Nc1cccc(C(F)(F)F)c1F)[C@]12C[C@@]1(c1ccnc(F)c1)[C@H]1O[C@@H]2C[C@@H]1O (racemic) [Example 14, rac-(1R,2R,4S,5R,6S)—N-(2-fluoro-3-(trifluoromethyl)phenyl)-4-(2-fluoropyridin-4-yl)-6-hydroxy-8-oxatricyclo[3.2.1.02,4]octane-2-carboxamide]	> 30 µM	8%
O=C(Nc1ccc(F)c(C(F)(F)F)c1)[C@]12C[C@@]1(c1ccnc(F)c1)[C@H]1O[C@@H]2C[C@@H]1O (racemic) [Example 15, rac-(1R,2R,4S,5R,6S)—N-(4-fluoro-3-(trifluoromethyl)phenyl)-4-(2-fluoropyridin-4-yl)-6-hydroxy-8-oxatricyclo[3.2.1.02,4]octane-2-carboxamide]	> 30 µM	5%
O=C(Nc1cc(F)cc(C(F)(F)F)c1)[C@]12C[C@@]1(c1ccnc(F)c1)[C@H]1O[C@@H]2C[C@@H]1O (racemic) [Example 16, rac-(1R,2R,4S,5R,6S)—N-(3-fluoro-5-(trifluoromethyl)phenyl)-4-(2-fluoropyridin-4-yl)-6-hydroxy-8-oxatricyclo[3.2.1.02,4]octane-2-carboxamide]	> 30 µM	34%
O=C(Nc1cc(C(F)(F)F)ccc1F)[C@]12C[C@@]1(c1ccnc(F)c1)[C@H]1O[C@@H]2C[C@@H]1O (racemic) [Example 17, rac-(1R,2R,4S,5R,6S)—N-(2-fluoro-5-(trifluoromethyl)phenyl)-4-(2-fluoropyridin-4-yl)-6-hydroxy-8-oxatricyclo[3.2.1.02,4]octane-2-carboxamide]	> 30 µM	17%
O=C(Nc1ccc(Cl)c(C(F)(F)F)c1)[C@]12C[C@@]1(c1ccnc(F)c1)[C@H]1O[C@@H]2C[C@@H]1O (racemic) [Example 18, rac-(1R,2R,4S,5R,6S)—N-(4-chloro-3-(trifluoromethyl)phenyl)-4-(2-fluoropyridin-4-yl)-6-hydroxy-8-oxatricyclo[3.2.1.02,4]octane-2-carboxamide]	> 30 µM	25%
O=C(Nc1cc(Cl)cc(C(F)(F)F)c1)[C@]12C[C@@]1(c1ccnc(F)c1)[C@H]1O[C@@H]2C[C@@H]1O (racemic) [Example 19, rac-(1R,2R,4S,5R,6S)—N-(3-chloro-5-(trifluoromethyl)phenyl)-4-(2-fluoropyridin-4-yl)-6-hydroxy-8-oxatricyclo[3.2.1.02,4]octane-2-carboxamide]	> 30 µM	0%
COc1cc([C@@]23C[C@]2(C(=O)Nc2cc(C(F)(F)F)ccn2)[C@H]2C[C@H](O)[C@@H]3O2)ccn1 (racemic) [Example 20, rac-(1R,2R,4S,5R,6S)-6-hydroxy-4-(2-methoxypyridin-4-yl)-N-(4-(trifluoromethyl)pyridin-2-yl)-8-oxatricyclo[3.2.1.02,4]octane-2-carboxamide]	> 30 µM	24%
COc1cc([C@@]23C[C@]2(C(=O)Nc2cc(C(F)(F)F)cc(Cl)n2)[C@H]2C[C@H](O)[C@@H]3O2)ccn1 (racemic) [Example 21, rac-(1R,2R,4S,5R,6S)—N-(6-chloro-4-(trifluoromethyl)pyridin-2-yl)-6-hydroxy-4-(2-methoxypyridin-4-yl)-8-oxatricyclo[3.2.1.02,4]octane-2-carboxamide]	> 30 µM	0%
